The values below come from US20230066011A1, “PYRROLOPYRIMIDINE DERIVATIVE, AND PHARMACEUTICAL COMPOSITION FOR PREVENTING OR TREATING PROTEIN KINASE-RELATED DISEASE COMPRISING SAME AS ACTIVE INGREDIENT” (VORONOI CO., LTD., priority 2019, published 2023).

As a reminder, the pIC50 is the IC50 on a negative log10 scale, so that one unit is a factor of ten. What is called GI50 is the concentration giving 50% growth inhibition. Read a high GI50 as lower sensitivity of the cells.

pIC50: −log10 of the molar value.

The target of one test is T1, human GST-DYRK1A (Homo sapiens, UniProt Q13627).
T1 construct: purified human GST-DYRK1A (full length, Thermo Scientifics) enzyme; purchased Thermo Scientifics
The test can be described thus: GST-DYRK1A enzyme inhibition, ADP-Glo kinase assay. It is filed as biochemical. The following applies: ATP 10 μM, GST-DYRK1A full length, read-out: DYRK1 IC50. In a few lines: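 Full-length enzyme (10 ng) was incubated with 10 μM ATP and a specific substrate for 1 h at 25 °C in 40 mM Tris-HCl pH 7.4, 20 mM MgCl2, 0.5 mg/mL BSA, 50 μM DTT. Luminescence was read against a solvent control, and IC50 values were derived from 3 data sets.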
(In general: ADP-Glo turns the ADP formed in a reaction into a luminescent signal.)

A further test concerns the target T2, human GST-CLK1 (Homo sapiens, UniProt P49759).
T2 construct: purified human GST-CLK1 (129-end, SignalChem) enzyme; purchased SignalChem
The test can be described thus: GST-CLK1 enzyme inhibition, ADP-Glo kinase assay. The test is classed as biochemical. The following applies: ATP 10 μM, GST-CLK1 129-end. Summed up:
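ADP-Glo luminescence read-out, relative to untreated solvent control, gave IC50 (nM) from triplicate data sets. Reactions ran an hour at 25° C with 3 ng GST-CLK1 (residues 129-end), 10 μM ATP and specific substrate in Tris-HCl pH 7.4 buffer with MgCl2, BSA and DTT.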

The subject of another test is MDA-MB-468 cell line. The test can be described thus: Inhibition of proliferation of MDA-MB-468 cancer cells (Cell Titer-Glo). The test is classed as cell-based. The following applies: Homo sapiens, MDA-MB-468, 72 hours. In a few lines: (§1)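 Luminescence from Cell Titer-Glo (10 min, room temperature) gave GI50 after 72 h compound treatment. Final compound levels spanned 0.000169–10.000000 μM over 11 points, 3-fold steps; 2,000 cells/well grown in DMEM or RPMI.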
For orientation: ATP-based viability assays read luminescence as a measure of living cells.

Another test has as its system SHP-77. The test can be described thus: Inhibition of proliferation of SHP-77 cancer cells (Cell Titer-Glo). The test is classed as cell-based. The following applies: Homo sapiens, SHP77, 72 hours. Summed up: as §1
Another test concerns MDA-MB-231 cell line. The test can be described thus: Inhibition of proliferation of MDA-MB-231 cancer cells (Cell Titer-Glo). It is filed as cell-based. Conditions: Homo sapiens, 72 hours. Summed up:
as §1

The target in another test is LRRK2 (Homo sapiens, UniProt Q5S007). The test can be described thus: LRRK2 enzyme inhibition, ADP-Glo kinase assay. More on the design: purchased Invitrogen PR8604B. It is filed as biochemical. Conditions: ATP 10 μM. In a few lines: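 ADP-Glo luminescent read-out of ADP formed by purified human LRRK2 enzyme (25 ng), 10 μM ATP, 0.2 μg substrate, 25° C for 2 h, Tris-HCl pH 7.4 buffer with MgCl2, BSA, DTT. Inhibition versus untreated solvent control over twelve final concentrations (50 μM downward) gives IC50.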
Sequence of LRRK2 (Q5S007 970-2527 limits assumed): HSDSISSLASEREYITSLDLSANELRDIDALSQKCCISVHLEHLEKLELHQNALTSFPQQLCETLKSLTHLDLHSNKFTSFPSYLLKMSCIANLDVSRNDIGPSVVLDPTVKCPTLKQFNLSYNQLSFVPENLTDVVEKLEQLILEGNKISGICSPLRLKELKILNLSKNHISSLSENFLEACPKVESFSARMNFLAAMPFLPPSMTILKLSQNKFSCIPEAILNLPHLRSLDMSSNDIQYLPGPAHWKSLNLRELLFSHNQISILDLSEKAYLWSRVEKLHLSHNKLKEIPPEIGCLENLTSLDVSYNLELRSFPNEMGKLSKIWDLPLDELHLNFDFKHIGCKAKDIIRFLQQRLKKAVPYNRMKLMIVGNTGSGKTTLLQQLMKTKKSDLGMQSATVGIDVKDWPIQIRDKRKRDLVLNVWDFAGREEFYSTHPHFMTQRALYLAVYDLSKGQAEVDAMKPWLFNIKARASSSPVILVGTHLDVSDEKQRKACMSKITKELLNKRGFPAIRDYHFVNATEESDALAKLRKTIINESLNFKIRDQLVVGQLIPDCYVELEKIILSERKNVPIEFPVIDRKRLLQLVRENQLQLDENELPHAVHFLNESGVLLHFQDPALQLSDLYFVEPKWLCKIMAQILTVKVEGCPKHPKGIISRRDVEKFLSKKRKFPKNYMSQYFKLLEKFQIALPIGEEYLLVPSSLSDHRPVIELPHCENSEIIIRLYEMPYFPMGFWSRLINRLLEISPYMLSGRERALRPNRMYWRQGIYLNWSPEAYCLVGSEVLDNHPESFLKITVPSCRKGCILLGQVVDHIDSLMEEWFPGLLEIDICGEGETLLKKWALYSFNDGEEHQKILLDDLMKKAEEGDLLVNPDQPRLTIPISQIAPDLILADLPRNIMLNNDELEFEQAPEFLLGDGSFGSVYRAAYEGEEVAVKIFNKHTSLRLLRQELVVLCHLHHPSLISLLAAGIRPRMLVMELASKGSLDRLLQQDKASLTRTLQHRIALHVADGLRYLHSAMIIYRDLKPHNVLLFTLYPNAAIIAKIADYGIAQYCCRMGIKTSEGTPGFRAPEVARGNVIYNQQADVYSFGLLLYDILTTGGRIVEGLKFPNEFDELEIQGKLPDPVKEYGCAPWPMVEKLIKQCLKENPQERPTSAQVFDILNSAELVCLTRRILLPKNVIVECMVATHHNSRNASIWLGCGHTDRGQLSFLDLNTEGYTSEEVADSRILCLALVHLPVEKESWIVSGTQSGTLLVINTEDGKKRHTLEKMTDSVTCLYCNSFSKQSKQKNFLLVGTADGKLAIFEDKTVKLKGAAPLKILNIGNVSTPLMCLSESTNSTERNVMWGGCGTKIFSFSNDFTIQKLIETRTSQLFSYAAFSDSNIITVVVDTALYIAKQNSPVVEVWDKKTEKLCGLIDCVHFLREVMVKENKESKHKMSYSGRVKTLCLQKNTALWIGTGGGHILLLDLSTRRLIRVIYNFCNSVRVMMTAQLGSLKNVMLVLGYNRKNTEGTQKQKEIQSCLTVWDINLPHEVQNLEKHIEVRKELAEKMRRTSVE

Another test deals with LRRK2 (G2019S) (Homo sapiens, UniProt Q5S007, G2019S). The test can be described thus: LRRK2 G2019S enzyme inhibition, ADP-Glo kinase assay. It is filed as biochemical. More on the design: purchased SignalChem L10-12GG. The following applies: ATP 25 μM. Summed up:
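IC50 derived from luminescent ADP-Glo readout against untreated solvent control, twelve final compound concentrations from 50 μM downward. Reaction: recombinant human LRRK2 G2019S enzyme, 25 μM ATP, substrate, pH 7.4 Tris buffer with MgCl2/BSA/DTT, 25° C. for 2 hours.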

T2 sequence (P49759 129-484 limits assumed): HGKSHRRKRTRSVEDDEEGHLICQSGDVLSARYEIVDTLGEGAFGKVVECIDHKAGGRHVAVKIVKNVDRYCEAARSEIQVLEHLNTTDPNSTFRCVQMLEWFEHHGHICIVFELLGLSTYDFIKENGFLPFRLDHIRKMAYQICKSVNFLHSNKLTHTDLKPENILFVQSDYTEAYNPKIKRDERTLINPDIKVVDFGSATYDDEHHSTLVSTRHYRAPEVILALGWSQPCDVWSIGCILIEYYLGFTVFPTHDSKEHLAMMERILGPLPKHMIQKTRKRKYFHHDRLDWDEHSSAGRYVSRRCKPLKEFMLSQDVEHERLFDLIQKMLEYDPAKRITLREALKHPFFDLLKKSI
Sequence of LRRK2 (G2019S) (Q5S007 970-2527 G2019S limits assumed): as the sequence (Q5S007 970-2527 limits assumed) above, with G1050S counted along it

For the compound `COc1cc(S(=O)(=O)N2CCOCC2)ccc1Nc1nc(N[C@H]2CCOC2)c2c(C#N)c[nH]c2n1` [Example 75, (S)-2-((2-methoxy-4-(morpholinosulfonyl)phenyl)amino)-4-((tetrahydrofuran-3-yl)amino)-7H-pyrrolo[2,3-d]pyrimidine-5-carbonitrile], the pIC50 at human GST-DYRK1A and against human GST-CLK1 was 6.00 to 6.52 in each case. Besides, the GI50 is 101 to 300 nM in the test with MDA-MB-468 cell line, less than 50 nM in the test on SHP-77 and 51 to 100 nM in the test with MDA-MB-231 cell line.

Turning to `COc1cc(S(=O)(=O)N2CCC(N3CCOCC3)CC2)ccc1Nc1nc(NC2CCCCC2)c2c(C#N)c[nH]c2n1` [Example 91, 4-(cyclohexylamino)-2-((2-methoxy-4-((4-morpholinopiperidin-1-yl)sulfonyl)phenyl)amino)-7H-pyrrolo[2,3-d]pyrimidine-5-carbonitrile], the negative-log IC50 (pIC50) on human GST-DYRK1A is 6.00 to 6.52; at human GST-CLK1, 6.00 to 6.52; against LRRK2 it was more than 7.00; against LRRK2 (G2019S), more than 7.00. Moreover, the results for the GI50 in the test with MDA-MB-468 cell line, in the test with SHP-77 and with MDA-MB-231 cell line were 51 to 100 nM, less than 50 nM and 51 to 100 nM, respectively.

In the case of `COc1cc(S(=O)(=O)N2CCOCC2)ccc1Nc1nc(NC2CCCCC2)c2c(C#N)c[nH]c2n1` [Example 73], the pIC50 was 6.00 to 6.52 on human GST-DYRK1A, 6.00 to 6.52 at human GST-CLK1, more than 7.00 at LRRK2 and 6.00 to 6.52 against LRRK2 (G2019S). Moreover, the 50% growth inhibitory concentration (GI50) in the test on MDA-MB-468 cell line is 101 to 300 nM; in the test with SHP-77, less than 50 nM; in the test with MDA-MB-231 cell line, less than 50 nM.

For the compound `CCNc1nc(Nc2ccc(S(=O)(=O)N3CCOCC3)cc2OC)nc2[nH]cc(C(F)(F)F)c12` [Example 191, N^4-ethyl-N^2-(2-methoxy-4-(morpholinosulfonyl)phenyl)-5-(trifluoromethyl)-7H-pyrrolo[2,3-d]pyrimidine-2,4-diamine], the pIC50 on human GST-DYRK1A was 6.00 to 6.52; on human GST-CLK1 it was 6.00 to 6.52; against LRRK2 it was 6.52 to 7.00; on LRRK2 (G2019S), 6.00 to 6.52. The GI50 in the test with SHP-77 was 101 to 300 nM; in the test with MDA-MB-231 cell line, 301 to 1000 nM.

Take `COc1cc(S(=O)(=O)N2CCC(N3CCOCC3)CC2)ccc1Nc1nc(NC2CCCC2)c2c(C#N)c[nH]c2n1` [Example 90, 4-(cyclopentylamino)-2-((2-methoxy-4-((4-morpholinopiperidin-1-yl)sulfonyl)phenyl)amino)-7H-pyrrolo[2,3-d]pyrimidine-5-carbonitrile]: the pIC50 on human GST-DYRK1A was 6.00 to 6.52; at human GST-CLK1, 6.00 to 6.52; against LRRK2, 6.52 to 7.00; against LRRK2 (G2019S), more than 7.00. The GI50 in the test on MDA-MB-468 cell line fell in the range of 51 to 100 nM; in the test with SHP-77, 101 to 300 nM; with MDA-MB-231 cell line, 51 to 100 nM.

With `COCC(C)(C)Nc1nc(Nc2ccc(S(=O)(=O)N3CCOCC3)cc2OC)nc2[nH]cc(C(F)(F)F)c12` [Example 175, N^4-(1-methoxy-2-methylpropan-2-yl)-N^2-(2-methoxy-4-(morpholinosulfonyl)phenyl)-5-(trifluoromethyl)-7H-pyrrolo[2,3-d]pyrimidine-2,4-diamine], the pIC50 on human GST-DYRK1A, against human GST-CLK1, at LRRK2 and on LRRK2 (G2019S) was 6.00 to 6.52 each time. Further, the GI50 lay within 101 to 300 nM with SHP-77 and 301 to 1000 nM in the test with MDA-MB-231 cell line.

As for `COc1cc(S(=O)(=O)N2CCOCC2)ccc1Nc1nc(NCC2CC2)c2c(C#N)c[nH]c2n1` [Example 77, 4-((cyclopropylmethyl)amino)-2-((2-methoxy-4-(morpholinosulfonyl)phenyl)amino)-7H-pyrrolo[2,3-d]pyrimidine-5-carbonitrile], the pIC50 is 6.00 to 6.52 on human GST-DYRK1A, 6.00 to 6.52 against human GST-CLK1, more than 7.00 against LRRK2 and more than 7.00 against LRRK2 (G2019S). The GI50 in the test on SHP-77 and in the test with MDA-MB-231 cell line was less than 50 nM throughout.

As for `CCCCNc1nc(Nc2ccc(S(=O)(=O)N3CCC(N4CCOCC4)CC3)cc2OC)nc2[nH]cc(C(F)(F)F)c12` [Example 202, N^4-butyl-N^2-(2-methoxy-4-((4-morpholinopiperidin-1-yl)sulfonyl)phenyl)-5-(trifluoromethyl)-7H-pyrrolo[2,3-d]pyrimidine-2,4-diamine], the pIC50 is 6.00 to 6.52 on human GST-DYRK1A, 6.00 to 6.52 against human GST-CLK1, more than 7.00 against LRRK2 and 6.52 to 7.00 against LRRK2 (G2019S). Moreover, the GI50 in the test with SHP-77 and in the test on MDA-MB-231 cell line was 301 to 1000 nM each time.
